“Also recorded” adds a separate entry of the source.
Tests used:
Test in all cases: In vitro ubiquitination of human SALL4 zinc fingers by human cereblon-CRL4
Assay type in all cases: biochemical
[1] = target: T1, SALL4 zinc finger domains / cereblon-CRL4 (Homo sapiens, UniProt Q96SW2+Q9UJQ4, G600A); details: compared with wild-type ZF4; with thalidomide
T1 construct: Human cereblon-DDB1 (cereblon amino acids 40-442 and full length DDB1); The first zinc finger domain encompasses amino acid residues 405-432; ZZ-domain-6xHis-thrombin site (N, cleaved yes); made in house; host or cells: SF9 insect cells (cereblon-DDB1, Cul4A-Rbx1); E. coli BL21 (DE3) Star (MBP-zinc finger)
Procedure: (§1) Purified E1, E2, ubiquitin, Cul4A-Rbx1, cereblon-DDB1, and GSPT1 proteins were used to reconstitute the ubiquitination of MBP-fused WT and mutant proteins in vitro. Substrate proteins purified by maltose affinity resin (NEB) were incubated at an approximate concentration of 30 uM. Ubiquitination components described briefly: Human cereblon-DDB1 (cereblon amino acids 40-442 and full length DDB1) and 6×his-DDB1 alone were co-expressed in SF9 insect cells in the presence of 50 μM zinc acetate, and purified by nickel affinity resin (Qiagen), HiTrap ANX column ion exchange (GE Healthcare), and Sephacryl 400 16/60 size exclusion chromatography (GE healthcare). Human full length Cul4A and Rbx1 were co-expressed in SF9 insect cells and purified by nickel affinity resin and Superdex 200 16/60 size exclusion chromatography. Purified recombinant human Ube1 E1 (E-305), UbcH5a E2 (E2-616), and ubiquitin (U-100H) were purchased from R&D systems. Components were mixed to final concentrations of 10 mM ATP, 1 μM Ube1, 25 μM UbcH5a, 200 μM Ub, 1 μM Cul4-Rbx1, 25 μM GSPT1, and 1 μM cereblon-DDB1, with or without 100 μM compound as indicated in ubiquitination assay buffer (20 mM HEPES pH 7.5, 150 mM NaCl, 10 mM MgCl2). After preincubation of E1, E2, ATP and ubiquitin for 30 minutes, and separate pre-incubation of MBP-substrate, CRBN-DDB1, Cul4-Rbx1, and compound for 5 minutes at room temperature, ubiquitination reactions were started by mixing the two pre-incubations. Reactions were incubated at 30 C for 2 hours before separation by SDS-PAGE followed by coomassie staining or immunoblot analysis.
(§2) SALL4 contains 7 zinc finger domains, 4 of which have a glycine at the same position as cereblon substrates Ikaros and Aiolos. In this example, four domains containing these 4 glycine-containing zinc fingers were tested for compound-dependent ubiquitination by cereblon-CRL4 in a fully purified, in vitro ubiquitination system (see FIG. 1). The first zinc finger domain encompasses amino acid residues 405-432, which has a sequence of […] (SEQ ID NO: 3). The second zinc finger domain encompasses amino acid residues 589-616, which has a sequence of […] (SEQ ID NO: 4). The third zinc finger domain encompasses amino acid residues 865-892, which has a sequence of […] (SEQ ID NO: 5). The fourth zinc finger domain encompasses amino acid residues 893-920, which has a sequence of […] (SEQ ID NO: 6). Ikaros zinc finger domain (amino acid residues 140-168) was used as a control, which has a sequence of […] (SEQ ID NO: 7).
(§3) More specifically, individual zinc finger domains of SALL4 were expressed in E. coli and purified via an MBP tag. Purified zinc fingers were then tested in an in vitro ubiquitination assay for cereblon binding and ubiquitination. Purified zinc fingers were incubated with purified cereblon-CRL4 ubiquitin ligase complex and purified ubiquitination cascade components Uba1, UbcH5a, UbcH5b, ATP, and ubiquitin.
(§4) Ikaros and Aiolos harbor this motif within a zinc finger domain. 4 of them contain a glycine at the position necessary to mediate cereblon binding (see FIG. 1B). The human version of these four individual zinc fingers were expressed and purified for testing in our in vitro cereblon-CRL4 ubiquitination assay (see FIG. 1C). […] The existence of preferred zinc finger domains is highly reminiscent of the cereblon substrates Ikaros and Aiolos, where a single zinc finger motif mediates cereblon recruitment and degradation.

[2] = target: T2, SALL4 zinc finger domains / cereblon-CRL4 (Homo sapiens, UniProt Q96SW2+Q9UJQ4); details: MBP-tagged zinc finger, thalidomide vs DMSO
T2 construct: Human cereblon-DDB1 (cereblon amino acids 40-442 and full length DDB1); The first zinc finger domain encompasses amino acid residues 405-432; ZZ-domain-6xHis-thrombin site (N, cleaved yes); made in house; host or cells: SF9 insect cells (cereblon-DDB1, Cul4A-Rbx1); E. coli BL21 (DE3) Star (MBP-zinc finger)
Procedure: as §1, §2, §3, §4

[3] = target: T3, SALL4 zinc finger domains / cereblon-CRL4 (Homo sapiens, UniProt Q96SW2+Q9UJQ4, G416A); details: compared with wild-type ZF2; with thalidomide
T3 construct: Human cereblon-DDB1 (cereblon amino acids 40-442 and full length DDB1); The first zinc finger domain encompasses amino acid residues 405-432; ZZ-domain-6xHis-thrombin site (N, cleaved yes); made in house; host or cells: SF9 insect cells (cereblon-DDB1, Cul4A-Rbx1); E. coli BL21 (DE3) Star (MBP-zinc finger)
Procedure: as §1, §2, §3, §4

T3 sequence (Q96SW2 40-442, stated change not applied): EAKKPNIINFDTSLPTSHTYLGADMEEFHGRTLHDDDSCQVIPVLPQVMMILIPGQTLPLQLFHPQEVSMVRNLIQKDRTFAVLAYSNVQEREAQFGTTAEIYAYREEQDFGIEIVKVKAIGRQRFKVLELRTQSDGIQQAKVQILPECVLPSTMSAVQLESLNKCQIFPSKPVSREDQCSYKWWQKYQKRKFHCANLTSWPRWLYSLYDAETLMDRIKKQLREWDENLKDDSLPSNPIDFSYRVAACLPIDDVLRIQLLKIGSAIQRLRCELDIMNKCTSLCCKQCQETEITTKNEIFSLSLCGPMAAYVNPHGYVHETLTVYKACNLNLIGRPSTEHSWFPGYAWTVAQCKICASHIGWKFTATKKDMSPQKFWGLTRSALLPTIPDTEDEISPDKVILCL
T3 sequence (Q9UJQ4 405-432 G416A): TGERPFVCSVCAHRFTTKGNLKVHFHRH
T3 sequence (Q16531 whole entry partner, the tested form may be a part): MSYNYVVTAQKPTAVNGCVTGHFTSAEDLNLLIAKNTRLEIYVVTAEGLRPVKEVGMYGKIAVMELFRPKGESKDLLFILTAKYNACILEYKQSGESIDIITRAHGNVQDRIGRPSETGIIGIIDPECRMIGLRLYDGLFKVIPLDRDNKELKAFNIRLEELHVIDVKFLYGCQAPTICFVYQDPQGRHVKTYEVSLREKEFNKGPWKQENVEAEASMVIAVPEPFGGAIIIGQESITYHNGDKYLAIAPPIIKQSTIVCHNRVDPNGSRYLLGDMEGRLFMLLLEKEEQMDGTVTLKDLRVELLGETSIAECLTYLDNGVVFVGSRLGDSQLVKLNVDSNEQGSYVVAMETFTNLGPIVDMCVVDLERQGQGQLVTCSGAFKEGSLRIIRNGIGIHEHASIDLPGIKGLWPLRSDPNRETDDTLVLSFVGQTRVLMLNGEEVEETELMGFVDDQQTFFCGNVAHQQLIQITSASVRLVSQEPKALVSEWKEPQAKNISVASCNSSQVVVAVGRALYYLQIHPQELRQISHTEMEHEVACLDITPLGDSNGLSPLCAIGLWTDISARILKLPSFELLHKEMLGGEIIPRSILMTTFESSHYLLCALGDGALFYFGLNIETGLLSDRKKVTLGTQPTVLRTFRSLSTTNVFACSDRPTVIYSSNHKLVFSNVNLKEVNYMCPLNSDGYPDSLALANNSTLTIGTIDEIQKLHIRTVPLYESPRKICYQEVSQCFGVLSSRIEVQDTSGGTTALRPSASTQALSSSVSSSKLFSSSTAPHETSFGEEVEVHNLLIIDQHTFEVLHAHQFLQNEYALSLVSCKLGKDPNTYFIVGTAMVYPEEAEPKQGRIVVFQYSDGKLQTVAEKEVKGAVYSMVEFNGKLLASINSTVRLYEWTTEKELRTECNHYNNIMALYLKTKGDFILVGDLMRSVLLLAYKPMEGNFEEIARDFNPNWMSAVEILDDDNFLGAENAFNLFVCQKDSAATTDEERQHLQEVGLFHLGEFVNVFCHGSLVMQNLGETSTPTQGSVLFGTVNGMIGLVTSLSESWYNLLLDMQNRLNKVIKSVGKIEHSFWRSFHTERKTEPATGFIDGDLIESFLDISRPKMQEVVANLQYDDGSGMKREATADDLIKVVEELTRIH
T3 sequence (Q13619 whole entry partner, the tested form may be a part): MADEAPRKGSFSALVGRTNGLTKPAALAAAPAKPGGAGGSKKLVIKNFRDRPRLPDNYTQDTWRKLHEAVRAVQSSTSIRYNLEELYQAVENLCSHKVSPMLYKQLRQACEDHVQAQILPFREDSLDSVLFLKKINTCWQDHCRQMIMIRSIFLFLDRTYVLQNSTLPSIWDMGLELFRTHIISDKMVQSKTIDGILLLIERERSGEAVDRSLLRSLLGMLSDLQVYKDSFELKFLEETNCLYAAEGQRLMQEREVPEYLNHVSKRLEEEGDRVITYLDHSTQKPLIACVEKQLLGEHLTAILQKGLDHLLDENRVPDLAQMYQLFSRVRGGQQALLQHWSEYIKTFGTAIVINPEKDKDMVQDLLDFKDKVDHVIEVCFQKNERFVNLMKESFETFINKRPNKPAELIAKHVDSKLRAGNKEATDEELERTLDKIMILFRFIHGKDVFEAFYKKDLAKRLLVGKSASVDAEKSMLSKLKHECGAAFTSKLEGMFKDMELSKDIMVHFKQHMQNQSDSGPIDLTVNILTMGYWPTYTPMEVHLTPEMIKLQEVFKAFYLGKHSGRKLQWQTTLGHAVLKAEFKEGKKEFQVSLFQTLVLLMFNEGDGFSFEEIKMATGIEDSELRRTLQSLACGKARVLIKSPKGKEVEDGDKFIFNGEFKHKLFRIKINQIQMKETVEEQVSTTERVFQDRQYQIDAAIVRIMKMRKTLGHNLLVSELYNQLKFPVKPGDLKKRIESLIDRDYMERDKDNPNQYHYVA
T3 sequence (P62877 whole entry partner, the tested form may be a part): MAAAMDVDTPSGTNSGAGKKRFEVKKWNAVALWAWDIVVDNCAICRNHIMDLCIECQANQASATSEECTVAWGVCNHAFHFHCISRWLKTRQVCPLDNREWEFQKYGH
T1 sequence (Q96SW2 40-442): as the sequence (Q96SW2 40-442, stated change not applied) above
T1 sequence (Q9UJQ4 589-616 G600A): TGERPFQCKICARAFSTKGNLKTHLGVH
T1 sequence (Q16531 whole entry partner, the tested form may be a part): as the sequence (Q16531 whole entry partner, the tested form may be a part) above
T1 sequence (Q13619 whole entry partner, the tested form may be a part): as the sequence (Q13619 whole entry partner, the tested form may be a part) above
T1 sequence (P62877 whole entry partner, the tested form may be a part): as the sequence (P62877 whole entry partner, the tested form may be a part) above

O=C1CCC(N2C(=O)c3ccccc3C2=O)C(=O)N1 (centres unmarked) [thalidomide]
Ubiquitination of G600A mutant SALL4 zinc finger 4 [1]: significantly reduced upon mutation of the glycine to alanine | Ubiquitination of SALL4 zinc finger 2 (ZF2, a.a. 410-432) by cereblon-CRL4 [2]: robustly ubiquitinated in a thalidomide-dependent manner; also recorded: efficiently ubiquitinated by cereblon-CRL4 in a thalidomide-dependent manner; also recorded: efficiently ubiquitinated by human cereblon in a thalidomide-dependent manner | Ubiquitination of SALL4 zinc finger 4 (ZF4, a.a. 594-616) by cereblon-CRL4 [2]: also ubiquitinated in the presence of thalidomide, but more weakly; also recorded: weak ubiquitination | Ubiquitination of SALL4 zinc finger domain a.a. 405-432 by cereblon-CRL4 ([2]; 100 μM compound): observed only in the presence of cereblon modifying compound; also recorded: ubiquitinated in a thalidomide-dependent manner quite strongly; also recorded: predominantly ubiquitinated by cereblon-CRL4 in a thalidomide-dependent manner | Ubiquitination of G416A mutant SALL4 zinc finger 2 [3]: significantly reduced upon mutation of the glycine to alanine; also recorded: significantly reduced ubiquitination

Source: patent US12590953B2, “Methods for screening cereblon modifying compounds” (CELGENE CORPORATION, priority 2018, dated 2026)
